From paper PMC5675120 (Nature chemical biology, 2017)
Where no end group is shown, it is not given here. The star is where a group is joined. FITC = O=C1OC2(c3ccc(O)cc3Oc3cc(O)ccc32)c2ccc(NC(=S)*)cc21

What was measured:
BAX = BAX (Homo sapiens, UniProt Q07812); assay: STD NMR; assay type: binding
[1] = biological target: T1, BCL-2-associated X protein (BAX), recombinant, full-length, monomeric (human, UniProt Q07812 1-192); assay: fluorescence polarisation
[2] = biological target: T1, BCL-2-associated X protein (BAX), …; assay: competition STD NMR

Chain of BAX (Q07812 whole entry): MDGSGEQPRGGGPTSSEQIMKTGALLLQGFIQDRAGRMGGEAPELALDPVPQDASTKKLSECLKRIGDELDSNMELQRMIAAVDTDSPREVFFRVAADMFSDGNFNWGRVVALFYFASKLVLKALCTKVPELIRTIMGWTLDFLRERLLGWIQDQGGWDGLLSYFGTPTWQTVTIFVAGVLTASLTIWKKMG
T1 sequence (Q07812 whole entry): as above

| Molecule | STD NMR; liposomal release sensitization (BAX) | also measured |
| --- | --- | --- |
| Oc1cccc(Oc2ccccc2)c1 [compound 2, 3-phenoxyphenol] | all retain BAX-binding activity as assessed by STD NMR, and demonstrate BAX-sensitization activity | – |
| Oc1ccc(Cc2ccccc2)cc1 [compound 3, 4-benzylphenol] | all retain BAX-binding activity as assessed by STD NMR, and demonstrate BAX-sensitization activity | – |
| Nc1ccc(Oc2ccccc2)cc1 [compound 4, 4-phenoxyaniline] | all retain BAX-binding activity as assessed by STD NMR, and demonstrate BAX-sensitization activity | – |
| {FITC}-EALKKALRRHRFLWQRRQRA [FITC-vMIA peptide (aa 131-150)] | – | binding result [1]: binds |
| EALKKALRRHRFLWQRRQRA [vMIA peptide (aa 131-150), as used in competition STD NMR] | – | binding result [2]: binds |
